The test system of one test is Candida tropicalis. As to the kind of experiment: Antifungal activity against Candida tropicalis ATCC 1369 assessed as fungal growth inhibition incubated for 72 hrs by broth microdilution method. The test is classed as functional. On the technique in general: Broth dilution looks for growth in wells or tubes with falling amounts of substance.
Another test has as its system Aspergillus fumigatus. As to the kind of experiment: Antifungal activity against Aspergillus fumigatus KM 8001 assessed as fungal growth inhibition incubated for 72 hrs by broth microdilution method. The test is classed as functional.
Another test relates to Nakaseomyces glabratus. In words: Antifungal activity against Candida glabrata assessed as fungal growth inhibition incubated for 72 hrs by broth microdilution method. The test is classed as functional.
In a further test the test system is Cryptococcus neoformans. As to the kind of experiment: Antifungal activity against Cryptococcus neoformans ZKCC 2209 assessed as fungal growth inhibition incubated for 72 hrs by broth microdilution method. The class given is functional.
The subject of test [1] is Candida albicans. In words: Antifungal activity against Candida albicans ATCC SC5314 assessed as fungal growth inhibition incubated for 72 hrs by broth microdilution method. The test is classed as functional.
Test [2] can be described thus: Inhibition of chitin synthase extracted from Candida tropicalis ATCC 1369 using UDP-GlcNAc as substrate incubated for 1 hrs.
The subject of test [3] is Candida albicans. As to the kind of experiment: Antifungal activity against fluconazole-resistant Candida albicans 904 assessed as reduction in fungal growth incubated for 72 hrs by broth microdilution method. The class given is functional.
Test [4] relates to Candida albicans. In words: Antifungal activity against fluconazole-resistant Candida albicans 632 assessed as reduction in fungal growth incubated for 72 hrs by broth microdilution method. The class given is functional.
Test [5] has as its system Candida albicans. In words: Antifungal activity against fluconazole-resistant Candida albicans CaR assessed as reduction in fungal growth incubated for 72 hrs by broth microdilution method. The test is classed as functional.
Test [6] relates to Candida albicans. In words: Antifungal activity against fluconazole-resistant Candida albicans 17# assessed as reduction in fungal growth incubated for 72 hrs by broth microdilution method. The test is classed as functional.
In test [7] the test system is Candida albicans. In words: Antifungal activity against fluconazole-resistant Candida albicans 901 assessed as reduction in fungal growth incubated for 72 hrs by broth microdilution method. The class given is functional.
Test [8] is described as follows: Binding affinity to chitin synthase (unknown origin) assessed as dissociation constant by SPR analysis. In general terms: SPR reads the build-up and loss of mass on a sensor chip optically.
Test [9] relates to Candida albicans. As to the kind of experiment: Fungicidal activity against Candida albicans ATCC SC5314 assessed as dead cells (reference value: 8%). The test is classed as functional.
Test [10] relates to Candida albicans. In words: Fungicidal activity against Candida albicans ATCC SC5314 assessed as live cells (reference value: 92%). The class given is functional.
Test [11] concerns Candida albicans. As to the kind of experiment: Induction of apoptosis in Candida albicans ATCC SC5314 assessed as necrotic cells by V-FITC/PI staining based flow cytometric analysis (reference value: 2.74%). The class given is functional.
A further test has as its system A549. In words: Cytotoxicity against human A549 cells incubated for 24 hrs by CCK8 assay. To be noted: A549, 24 h. The test is classed as functional, cell-based.
The subject of test [12] is Candida albicans. As to the kind of experiment: Induction of apoptosis in Candida albicans ATCC SC5314 assessed as viable cells by V-FITC/PI staining based flow cytometric analysis (reference value: 93.3%). The class given is functional.
Test [13] relates to Candida albicans. In words: Induction of apoptosis in Candida albicans ATCC SC5314 assessed as early apoptotic cells by V-FITC/PI staining based flow cytometric analysis (reference value: 3.51%). The test is classed as functional. In general terms: A flow cytometer gives signals particle by particle.
Test [14] has as its system Candida albicans. As to the kind of experiment: Induction of apoptosis in Candida albicans ATCC SC5314 assessed as late apoptotic cells by V-FITC/PI staining based flow cytometric analysis (reference value: 0.40%). The test is classed as functional.
The test system of a further test is HeLa. As to the kind of experiment: Cytotoxicity against human HeLa cells incubated for 24 hrs by CCK8 assay. The test is classed as functional, cell-based.
Test [15] concerns Candida albicans. In words: In vivo antifungal activity against Candida albicans 901 infected in mouse model assessed as expansion of alveolar spaces in lung at 5 microg/g, iv pre-infected with fungi by intravenous injection followed by compound administration and measured on day 8 by H and E staining based analysis. The class given is functional, organism-based. As to conditions: dose 5.0 µg/g, time 8.0 day.

For test [16], the system named is Candida albicans. In words: Induction of ROS generation in Candida albicans ATCC SC5314 assessed as increase in fluorescence intensity incubated for 12 hrs by fluorescence microscopic analysis. The test is classed as functional, organism-based.
Test [17] deals with Candida albicans. As to the kind of experiment: In vivo antifungal activity against Candida albicans 901 infected in mouse model assessed as body weight gain at 5 microg/g, iv pre-infected with fungi by intravenous injection followed by compound administration and measured on day 8. The class given is functional, organism-based. To be noted: dose 5.0 µg/g, time 8.0 day.
Test [18] concerns Candida albicans. In words: In vivo antifungal activity against Candida albicans 901 infected in mouse model assessed as decrease in PD-L1 protein expression level at 5 microg/g, iv pre-infected with fungi by intravenous injection followed by compound administration and measured on day 8 by Western blotting analysis. As to conditions: dose 5.0 µg/g, time 8.0 day. The class given is functional, organism-based.

Test [19] has as its system Candida albicans. As to the kind of experiment: In vivo antifungal activity against Candida albicans 901 infected in mouse model assessed as decrease in IFN-gamma protein expression level at 5 microg/g, iv pre-infected with fungi by intravenous injection followed by compound administration and measured on day 8 by Western blotting analysis. The test is classed as functional, organism-based. To be noted: dose 5.0 µg/g, time 8.0 day.

For test [20], the system named is Candida albicans. In words: In vivo antifungal activity against Candida albicans 901 infected in mouse model assessed as decrease in IDO protein expression level at 5 microg/g, iv pre-infected with fungi by intravenous injection followed by compound administration and measured on day 8 by Western blotting analysis. To be noted: dose 5.0 µg/g, time 8.0 day. The class given is functional, organism-based.

Test [21] deals with Candida albicans. As to the kind of experiment: In vivo antifungal activity against Candida albicans 901 infected in mouse model assessed as decrease in IL-2 protein expression level at 5 microg/g, iv pre-infected with fungi by intravenous injection followed by compound administration and measured on day 8 by Western blotting analysis. The test is classed as functional, organism-based. As to conditions: dose 5.0 µg/g, time 8.0 day.

For test [22], the system named is Candida albicans. In words: In vivo antifungal activity against Candida albicans 901 infected in mouse model assessed as reduction in genetic material content in lung at 5 microg/g, iv pre-infected with fungi by intravenous injection followed by compound administration and measured on day 8 by H and E staining based analysis. The class given is functional, organism-based. As to conditions: dose 5.0 µg/g, time 8.0 day.

pIC50, pKd: −log10 of the molar value. Converted amounts (≈) assume the structure as drawn. The source made the active and inactive calls. The rule behind the calls is not given here.

Consider `O=C(CNC(=O)c1nc2ccc(Cl)cc2c(=O)[nH]1)NCc1ccccc1`, for which the MIC50 in the test with Candida tropicalis was 2 µg/mL (≈ 5.39 µM); with Aspergillus fumigatus, 8 µg/mL (≈ 21.6 µM); in the test on Nakaseomyces glabratus, 8 µg/mL (≈ 21.6 µM); with Cryptococcus neoformans, at least 16 µg/mL; in the test with Candida albicans [1], 4 µg/mL (≈ 10.8 µM). This compound also showed a pIC50 in [2] of 4.52.
For the compound `OC(Cn1cncn1)(Cn1cncn1)c1ccc(F)cc1F` [FLUCONAZOLE], the MIC50 in the test with Candida albicans [3] was at least 16 µg/mL; in the test with Candida albicans [4] it was at least 16 µg/mL; in the test with Candida tropicalis, 0.5 µg/mL (≈ 1.63 µM); in the test on Aspergillus fumigatus, 4 µg/mL (≈ 13.1 µM); in the test on Nakaseomyces glabratus it was 1 µg/mL (≈ 3.27 µM); in the test on Cryptococcus neoformans it was 2 µg/mL (≈ 6.53 µM). The MIC50 is 1 µg/mL (≈ 3.27 µM) with Candida albicans [1], at least 16 µg/mL in the test on Candida albicans [5], at least 16 µg/mL in the test with Candida albicans [6] and at least 16 µg/mL in the test with Candida albicans [7].
With `O=C(NCC(=O)N1CCN(c2ccccc2)CC1)c1nc2ccc(Cl)cc2c(=O)[nH]1`, in [8], the pKd is 7.22. The MIC50 in the test on Candida albicans [3] was found to be 4 µg/mL (≈ 9.39 µM); in the test on Candida albicans [4], 8 µg/mL (≈ 18.8 µM); in the test on Candida tropicalis, 1 µg/mL (≈ 2.35 µM); with Aspergillus fumigatus, 4 µg/mL (≈ 9.39 µM); with Nakaseomyces glabratus, 1 µg/mL (≈ 2.35 µM); in the test on Cryptococcus neoformans, 2 µg/mL (≈ 4.7 µM). In addition, the MIC50 was determined as 0.5 µg/mL (≈ 1.17 µM) in the test on Candida albicans [1], 4 µg/mL (≈ 9.39 µM) with Candida albicans [5], 2 µg/mL (≈ 4.7 µM) in the test on Candida albicans [6] and 8 µg/mL (≈ 18.8 µM) in the test with Candida albicans [7]. Besides, the Activity was 78% in the test on Candida albicans [9]; 22% with Candida albicans [10]; 16.6% in the test on Candida albicans [11]; 62.9% with Candida albicans [12]; 13.2% in the test with Candida albicans [13]; 7.3% with Candida albicans [14]. Besides, the pIC50 with A549 and with HeLa was under 4.30 in each case.
On to `C[C@@H](c1ncncc1F)[C@](O)(Cn1cncn1)c1ccc(F)cc1F`, for which, in the test with Candida albicans [15], the outcome was inactive.
With `O=C(NCC(=O)N1CCN(C(=O)c2ccccc2)CC1)c1nc2ccc(Cl)cc2c(=O)[nH]1`, in test [8], the pKd is 8.71. In addition, the MIC50 with Candida albicans [3] amounted to 2 µg/mL (≈ 4.41 µM); in the test on Candida albicans [4], 4 µg/mL (≈ 8.81 µM); with Candida tropicalis, 0.5 µg/mL (≈ 1.1 µM); in the test on Aspergillus fumigatus it was 2 µg/mL (≈ 4.41 µM); in the test with Nakaseomyces glabratus it was 1 µg/mL (≈ 2.2 µM); with Cryptococcus neoformans, 4 µg/mL (≈ 8.81 µM). For the same compound, the MIC50 with Candida albicans [1] was 0.5 µg/mL (≈ 1.1 µM); with Candida albicans [5] it was 2 µg/mL (≈ 4.41 µM); in the test with Candida albicans [6], 4 µg/mL (≈ 8.81 µM); with Candida albicans [7], 8 µg/mL (≈ 17.6 µM). Also, the outcome in the test with Candida albicans [16] was Active. The Activity in the test on Candida albicans [9] came to 94%; with Candida albicans [10], 6%; with Candida albicans [11] it was 23.6%; in the test with Candida albicans [12], 53.2%; in the test with Candida albicans [13], 11.1%; with Candida albicans [14] it was 12.1%. For the same compound, the pIC50 with A549 was under 4.30; in test [2], 4.71; in the test with HeLa, under 4.30.
On to `O=C(CNC(=O)c1nc2ccc(Cl)cc2c(=O)[nH]1)Nc1cccnc1`, for which the MIC50 in the test on Candida tropicalis was 8 µg/mL (≈ 22.4 µM); in the test with Aspergillus fumigatus it was at least 16 µg/mL; in the test on Nakaseomyces glabratus it was 4 µg/mL (≈ 11.2 µM); in the test on Cryptococcus neoformans it was 8 µg/mL (≈ 22.4 µM); in the test with Candida albicans [1], 8 µg/mL (≈ 22.4 µM).
Turning to `CC(=O)N1CCN(C(=O)CNC(=O)c2nc3ccc(Cl)cc3c(=O)[nH]2)CC1`, the MIC50 in the test on Candida tropicalis is 1 µg/mL (≈ 2.55 µM); with Aspergillus fumigatus, 8 µg/mL (≈ 20.4 µM); in the test on Nakaseomyces glabratus it was 2 µg/mL (≈ 5.1 µM); with Cryptococcus neoformans it was at least 16 µg/mL; in the test with Candida albicans [1], 1 µg/mL (≈ 2.55 µM).
Consider `NC(=O)OC[C@H](O)[C@@H](O)[C@H](N)C(=O)N[C@H](C(=O)O)[C@H]1O[C@@H](n2cc(CO)c(=O)[nH]c2=O)[C@H](O)[C@@H]1O` [POLYOXIN B], for which the pKd in [8] was 8.25. Further, the MIC50 in the test with Candida albicans [3] is 8 µg/mL (≈ 15.8 µM); in the test on Candida albicans [4], 4 µg/mL (≈ 7.88 µM); in the test with Candida tropicalis, 8 µg/mL (≈ 15.8 µM); in the test with Aspergillus fumigatus it was at least 16 µg/mL; in the test on Nakaseomyces glabratus, 2 µg/mL (≈ 3.94 µM); with Cryptococcus neoformans, 4 µg/mL (≈ 7.88 µM). Besides, the MIC50 turned out to be 4 µg/mL (≈ 7.88 µM) in the test with Candida albicans [1], 8 µg/mL (≈ 15.8 µM) with Candida albicans [5], 2 µg/mL (≈ 3.94 µM) in the test on Candida albicans [6] and 4 µg/mL (≈ 7.88 µM) in the test on Candida albicans [7]. Also, the outcome in the test with Candida albicans [15], in the test with Candida albicans [17], in the test with Candida albicans [18], in the test on Candida albicans [16], in the test with Candida albicans [19] and in the test on Candida albicans [20] was Active. Also, the outcome in the test with Candida albicans [21] and in the test with Candida albicans [22] was Active. Moreover, the Activity is recorded as 81% with Candida albicans [9]; 19% with Candida albicans [10]; 33% in the test with Candida albicans [11]; 57.5% in the test with Candida albicans [12]; 4.93% in the test with Candida albicans [13]; 4.5% with Candida albicans [14]. The pIC50 in the test on A549 is under 4.30; in [2], 4.59; with HeLa it was under 4.30.

A word on the MIC50: it is an inhibitory concentration at the 50% level, which refers to growth in some studies and to a panel of isolates in others. What is called pIC50 is the negative decadic logarithm of the IC50, by convention in mol/L. A low value points to a large IC50. What is called pKd is the Kd on a negative log10 scale, so that one unit is a factor of ten.

(Values after ChEMBL document CHEMBL6103585, “Construction and activity evaluation of novel CHS inhibitors against fungal infections” (Eur J Med Chem, 2025).)
